The source of these data is publication PMC6844396, “Design, synthesis and biological evaluation of novel 1H-1,2,4-triazole, benzothiazole and indazole-based derivatives as potent FGFR1 inhibitors viafragment-based virtual screening” (Journal of Enzyme Inhibition and Medicinal Chemistry, 2019).

One data set addresses FGFR1 (Homo sapiens, UniProt P11362). The data set is described as follows: ELISA kinase assay, FGFR1. It is filed as biochemical. On the procedure: Elisa kinase assay. The effects of the indicated compounds on the activities of receptor tyrosine kinases were determined using enzyme-linked immunosorbent assays (ELISAs) with purified recombinant proteins. Briefly, 20 μg/mL poly (Glu,Tyr)4:1 (Sigma, St Louis, MO, USA) was pre-coated in 96-well plates as a substrate. A 50 μL aliquot of 10 μmol/L ATP solution diluted in kinase reaction buffer (50 mmol/L HEPES [pH 7.4], 50 mmol/L MgCl2, 0.5 mmol/L MnCl2, 0.2 mmol/L Na3VO4, and 1 mmol/L DTT) was added to each well; 1 μL of different compounds with indicated concentration diluted in 1% DMSO (v/v) (Sigma, St Louis, MO, USA) were then added to each reaction well. DMSO (1%, v/v) was used as the negative control. The kinase reaction was initiated by the addition of purified tyrosine kinase proteins (FGFR1, FGFR2, FGFR3, FGFR4, ALK, Bcr-Abl, EPH-A2, Flt-1, RET, c-Src, IGF1R, c-Met, EGFR, ErbB2) diluted in 49 μL of kinase reaction buffer solution. After incubation for 60 min at 37 °C, the plate was washed three times with phosphate-buffered saline (PBS) containing 0.1% Tween 20 (T-PBS). Anti-phosphotyrosine (PY99) antibody (100 μL; 1:500, diluted in 5 mg/mL BSA T-PBS) was then added. After a 30 min incubation at 37 °C, the plate was washed three times, and 100 μL horseradish peroxidase-conjugated goat anti-mouse IgG (1:2000, diluted in 5 mg/mL BSA T-PBS) was added. The plate was then incubated at 37 °C for 30 min and washed 3 times. A 100 μL aliquot of a solution containing 0.03% H2O2 and 2 mg/mL o-phenylenediamine in 0.1 mol/l citrate buffer (pH 5.5) was added. The reaction was terminated by the addition of 50 μL of 2 mol/l H2SO4 as the colour changed, and the plate was analysed using a multi-well spectrophotometer (SpectraMAX 190, Molecular Devices, Sunnyvale, CA, USA) at 490 nm. The inhibition rate (%) was calculated using the following equation: [1-(A490/A490 control)] × 100%. The IC50 values were calculated from the inhibition curves in two separate experiments.
A general note: An ELISA detects its analyte on a solid surface through an enzyme-linked reagent.

Another data set concerns SNU-16 cell. The data set can be described thus: Cell proliferation assay (CCK-8 or MTT), SNU-16. As to conditions: Homo sapiens; Table 3; SNU-16 is FGFR2-amplified cell type; 72 h. The data set is classed as cell-based, Human. On the procedure: Human gastric cancer cell line SNU-16 was purchased from American Type Culture Collection (ATCC, Manssas, VA, USA). All the cell lines were routinely maintained in complete medium according to the suppliers’ recommendations.
Cells were seeded in 96-well tissue culture plates. On the day when seeding, the cells were exposed to various concentrations of compounds and further cultured for 72 h at 37 °C. Finally, cell proliferation was determined using Cell Counting Kit (CCK-8) or the thiazolyl blue tetrazolium bromide (MTT, from Sigma-Aldrich, St. Louis, MO, USA) assay. The IC50 values were calculated by concentration–response curve fitting using a SoftMax pro-based four-parameter method.

The target of another data set is FGFR2 (Homo sapiens, UniProt P21802). The data set is described as follows: ELISA kinase assay, FGFR2. The data set is classed as biochemical. To be noted: kinase selectivity panel. The method, then: DMSO (1%, v/v) was used as the negative control. […] Anti-phosphotyrosine (PY99) antibody (100 μL; 1:500, diluted in 5 mg/mL BSA T-PBS) was then added. […] The IC50 values were calculated from the inhibition curves in two separate experiments.
Sequence of FGFR2 (P21802 22-821): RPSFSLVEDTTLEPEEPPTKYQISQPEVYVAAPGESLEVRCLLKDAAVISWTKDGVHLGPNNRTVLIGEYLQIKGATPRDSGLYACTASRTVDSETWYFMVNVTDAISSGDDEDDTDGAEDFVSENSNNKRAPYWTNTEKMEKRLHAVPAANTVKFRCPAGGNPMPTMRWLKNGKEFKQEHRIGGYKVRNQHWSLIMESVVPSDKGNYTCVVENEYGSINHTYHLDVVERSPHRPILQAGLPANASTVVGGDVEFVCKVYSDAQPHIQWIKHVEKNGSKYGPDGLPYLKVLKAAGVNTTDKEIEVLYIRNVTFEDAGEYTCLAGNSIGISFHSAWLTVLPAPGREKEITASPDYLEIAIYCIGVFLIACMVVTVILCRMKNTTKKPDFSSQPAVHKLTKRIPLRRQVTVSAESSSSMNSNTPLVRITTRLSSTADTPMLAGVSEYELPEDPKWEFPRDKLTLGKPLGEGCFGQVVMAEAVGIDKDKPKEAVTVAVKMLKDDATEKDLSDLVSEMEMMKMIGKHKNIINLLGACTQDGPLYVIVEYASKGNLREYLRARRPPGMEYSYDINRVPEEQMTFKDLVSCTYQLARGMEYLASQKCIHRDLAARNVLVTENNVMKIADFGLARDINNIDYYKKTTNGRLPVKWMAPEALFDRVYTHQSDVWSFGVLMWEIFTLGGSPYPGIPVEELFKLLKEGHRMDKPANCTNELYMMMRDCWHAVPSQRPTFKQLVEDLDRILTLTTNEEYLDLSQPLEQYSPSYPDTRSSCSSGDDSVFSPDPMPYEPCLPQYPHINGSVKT

A further data set has as its target FGFR3 (Homo sapiens, UniProt P22607). The data set can be described thus: ELISA kinase assay, FGFR3. The data set is classed as biochemical. To be noted: kinase selectivity panel. The method, then:
(§1) The kinase profiling of 9 u was conducted using Elisa kinase assay and the Eurofins Kinase Profiler Selectivity Testing Service.
(§2) Elisa kinase assay. The effects of the indicated compounds on the activities of receptor tyrosine kinases were determined using enzyme-linked immunosorbent assays (ELISAs) with purified recombinant proteins. Briefly, 20 μg/mL poly (Glu,Tyr)4:1 (Sigma, St Louis, MO, USA) was pre-coated in 96-well plates as a substrate. A 50 μL aliquot of 10 μmol/L ATP solution diluted in kinase reaction buffer (50 mmol/L HEPES [pH 7.4], 50 mmol/L MgCl2, 0.5 mmol/L MnCl2, 0.2 mmol/L Na3VO4, and 1 mmol/L DTT) was added to each well; 1 μL of different compounds with indicated concentration diluted in 1% DMSO (v/v) (Sigma, St Louis, MO, USA) were then added to each reaction well. DMSO (1%, v/v) was used as the negative control. The kinase reaction was initiated by the addition of purified tyrosine kinase proteins (FGFR1, FGFR2, FGFR3, FGFR4, ALK, Bcr-Abl, EPH-A2, Flt-1, RET, c-Src, IGF1R, c-Met, EGFR, ErbB2) diluted in 49 μL of kinase reaction buffer solution. […] The reaction was terminated by the addition of 50 μL of 2 mol/l H2SO4 as the colour changed, and the plate was analysed using a multi-well spectrophotometer (SpectraMAX 190, Molecular Devices, Sunnyvale, CA, USA) at 490 nm. […] The IC50 values were calculated from the inhibition curves in two separate experiments.

The next data set deals with FGFR4 (Homo sapiens, UniProt P22455). The data set is described as follows: ELISA kinase assay, FGFR4. The data set is classed as biochemical. To be noted: kinase selectivity panel. On the procedure: as §1, §2
Sequence of FGFR4 (P22455 22-802): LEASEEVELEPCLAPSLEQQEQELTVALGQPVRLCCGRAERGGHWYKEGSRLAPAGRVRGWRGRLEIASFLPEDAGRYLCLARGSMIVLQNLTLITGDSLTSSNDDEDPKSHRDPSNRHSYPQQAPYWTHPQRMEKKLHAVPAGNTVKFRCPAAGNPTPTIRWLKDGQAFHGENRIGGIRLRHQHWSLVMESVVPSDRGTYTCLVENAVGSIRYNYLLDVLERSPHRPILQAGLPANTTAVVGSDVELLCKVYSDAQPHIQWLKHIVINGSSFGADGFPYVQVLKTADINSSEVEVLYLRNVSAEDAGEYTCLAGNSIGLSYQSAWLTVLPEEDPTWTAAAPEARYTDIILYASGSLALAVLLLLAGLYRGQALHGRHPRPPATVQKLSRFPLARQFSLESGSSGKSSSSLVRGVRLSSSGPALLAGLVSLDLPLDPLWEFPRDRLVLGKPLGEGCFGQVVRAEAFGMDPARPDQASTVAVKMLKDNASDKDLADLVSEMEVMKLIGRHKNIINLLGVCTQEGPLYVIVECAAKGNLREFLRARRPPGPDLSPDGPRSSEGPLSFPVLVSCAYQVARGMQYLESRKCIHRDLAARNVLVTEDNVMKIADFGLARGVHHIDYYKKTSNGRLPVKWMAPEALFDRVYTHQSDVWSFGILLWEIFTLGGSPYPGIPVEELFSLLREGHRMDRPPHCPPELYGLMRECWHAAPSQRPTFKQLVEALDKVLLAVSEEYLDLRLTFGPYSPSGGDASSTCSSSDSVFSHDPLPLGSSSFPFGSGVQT
A further data set has as its target ALK (Homo sapiens, UniProt Q9UM73). The data set can be described thus: ELISA kinase assay, ALK. It is filed as biochemical. As to conditions: kinase selectivity panel. The method, then:
as §1, §2

For another data set, the target named is Bcr-Abl (Homo sapiens, UniProt P00519). The data set can be described thus: ELISA kinase assay, Bcr-Abl. It is filed as biochemical. As to conditions: kinase selectivity panel. On the procedure:
as §1, §2

The next data set addresses EPH-A2 (Homo sapiens, UniProt P29317). The data set is described as follows: ELISA kinase assay, EPH-A2. The data set is classed as biochemical. To be noted: kinase selectivity panel. On the procedure: as §1, §2
A further data set addresses Flt-1 (Homo sapiens, UniProt P17948). The data set can be described thus: ELISA kinase assay, Flt-1. It is filed as biochemical. To be noted: kinase selectivity panel. On the procedure:
as §1, §2

The next data set deals with RET (Homo sapiens, UniProt P07949). The data set is described as follows: ELISA kinase assay, RET. It is filed as biochemical. As to conditions: kinase selectivity panel. On the procedure: as §1, §2
Sequence of RET (P07949 29-1114, species assumed): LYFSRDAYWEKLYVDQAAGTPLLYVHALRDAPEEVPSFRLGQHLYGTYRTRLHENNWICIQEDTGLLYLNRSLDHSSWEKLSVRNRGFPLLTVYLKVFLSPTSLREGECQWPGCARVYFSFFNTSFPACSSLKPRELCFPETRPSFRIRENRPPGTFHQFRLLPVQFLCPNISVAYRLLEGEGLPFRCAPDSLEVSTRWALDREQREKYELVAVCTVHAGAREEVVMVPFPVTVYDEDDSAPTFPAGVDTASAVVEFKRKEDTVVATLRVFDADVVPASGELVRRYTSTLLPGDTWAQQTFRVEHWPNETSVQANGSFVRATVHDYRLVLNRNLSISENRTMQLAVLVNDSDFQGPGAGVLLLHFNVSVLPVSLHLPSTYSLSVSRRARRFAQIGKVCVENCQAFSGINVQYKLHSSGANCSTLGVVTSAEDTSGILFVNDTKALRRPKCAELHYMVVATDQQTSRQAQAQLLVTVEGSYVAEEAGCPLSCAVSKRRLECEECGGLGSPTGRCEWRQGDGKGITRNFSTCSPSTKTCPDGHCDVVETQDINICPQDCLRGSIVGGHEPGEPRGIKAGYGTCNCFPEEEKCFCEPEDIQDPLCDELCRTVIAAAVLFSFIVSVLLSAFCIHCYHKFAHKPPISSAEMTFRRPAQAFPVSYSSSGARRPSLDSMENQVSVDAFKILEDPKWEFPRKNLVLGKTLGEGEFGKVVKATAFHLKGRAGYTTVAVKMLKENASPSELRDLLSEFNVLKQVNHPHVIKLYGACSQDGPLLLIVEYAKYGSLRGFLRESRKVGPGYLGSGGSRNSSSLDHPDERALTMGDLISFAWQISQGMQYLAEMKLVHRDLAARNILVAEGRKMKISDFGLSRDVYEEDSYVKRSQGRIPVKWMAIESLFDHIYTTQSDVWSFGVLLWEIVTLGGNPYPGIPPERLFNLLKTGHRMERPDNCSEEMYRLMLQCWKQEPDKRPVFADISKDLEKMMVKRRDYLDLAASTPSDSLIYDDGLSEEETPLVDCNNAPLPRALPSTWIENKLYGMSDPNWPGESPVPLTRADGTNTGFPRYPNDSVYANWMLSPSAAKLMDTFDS
The target in a further data set is c-Src (Homo sapiens, UniProt P12931). The data set is described as follows: ELISA kinase assay, c-Src. To be noted: kinase selectivity panel. The data set is classed as biochemical. The method, then:
as §1, §2

For a further data set, the target named is IGF1R (Homo sapiens, UniProt P08069). The data set is described as follows: ELISA kinase assay, IGF1R. The data set is classed as biochemical. As to conditions: kinase selectivity panel. The method, then:
as §1, §2

For another data set, the target named is c-Met (Homo sapiens, UniProt P08581). The data set is described as follows: ELISA kinase assay, c-Met. As to conditions: kinase selectivity panel. The data set is classed as biochemical. The method, then:
as §1, §2

The next data set concerns the target EGFR (Homo sapiens, UniProt P00533). The data set is described as follows: ELISA kinase assay, EGFR. The data set is classed as biochemical. As to conditions: kinase selectivity panel. The method, then: as §1, §2
A further data set concerns the target ErbB2 (Homo sapiens, UniProt P04626). The data set can be described thus: ELISA kinase assay, ErbB2. The data set is classed as biochemical. As to conditions: kinase selectivity panel. On the procedure: as §1, §2

pIC50: −log10 of the molar value.

Sequence of FGFR1 (P11362 22-822): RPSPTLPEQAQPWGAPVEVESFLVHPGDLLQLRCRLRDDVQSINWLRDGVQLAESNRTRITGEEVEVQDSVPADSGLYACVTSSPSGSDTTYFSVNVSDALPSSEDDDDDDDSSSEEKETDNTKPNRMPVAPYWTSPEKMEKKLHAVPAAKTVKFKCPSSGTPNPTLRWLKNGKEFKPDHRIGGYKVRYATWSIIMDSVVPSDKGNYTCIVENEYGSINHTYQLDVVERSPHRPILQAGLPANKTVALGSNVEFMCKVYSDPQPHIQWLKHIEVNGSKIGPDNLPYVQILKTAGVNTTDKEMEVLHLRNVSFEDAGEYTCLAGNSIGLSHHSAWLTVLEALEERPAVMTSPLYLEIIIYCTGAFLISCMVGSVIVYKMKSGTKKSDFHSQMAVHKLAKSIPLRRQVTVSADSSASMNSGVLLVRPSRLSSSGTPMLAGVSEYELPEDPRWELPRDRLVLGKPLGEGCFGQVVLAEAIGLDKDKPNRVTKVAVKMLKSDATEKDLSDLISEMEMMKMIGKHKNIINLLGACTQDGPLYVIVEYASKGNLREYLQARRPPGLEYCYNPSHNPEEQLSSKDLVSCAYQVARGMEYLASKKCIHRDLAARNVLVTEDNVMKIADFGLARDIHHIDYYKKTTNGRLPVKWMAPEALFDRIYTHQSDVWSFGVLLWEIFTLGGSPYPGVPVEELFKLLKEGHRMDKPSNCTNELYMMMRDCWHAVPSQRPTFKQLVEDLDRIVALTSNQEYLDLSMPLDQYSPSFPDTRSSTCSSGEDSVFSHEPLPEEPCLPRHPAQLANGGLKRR
Sequence of c-Src (P12931 whole entry, species assumed): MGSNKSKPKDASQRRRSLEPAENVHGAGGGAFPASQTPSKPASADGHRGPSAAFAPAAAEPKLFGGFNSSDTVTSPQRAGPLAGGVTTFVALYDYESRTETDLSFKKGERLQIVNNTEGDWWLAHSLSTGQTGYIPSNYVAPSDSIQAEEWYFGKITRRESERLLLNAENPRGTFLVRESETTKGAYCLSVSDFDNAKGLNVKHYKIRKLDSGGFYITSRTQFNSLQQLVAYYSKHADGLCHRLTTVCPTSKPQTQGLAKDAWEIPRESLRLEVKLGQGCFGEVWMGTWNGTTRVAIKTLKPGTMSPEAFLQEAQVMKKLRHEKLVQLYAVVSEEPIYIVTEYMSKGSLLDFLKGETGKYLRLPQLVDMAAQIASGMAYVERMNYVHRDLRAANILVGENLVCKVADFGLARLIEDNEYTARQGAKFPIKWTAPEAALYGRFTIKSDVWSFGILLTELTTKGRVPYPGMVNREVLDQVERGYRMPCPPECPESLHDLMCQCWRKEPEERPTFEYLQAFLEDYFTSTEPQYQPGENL
Sequence of FGFR3 (P22607 23-806): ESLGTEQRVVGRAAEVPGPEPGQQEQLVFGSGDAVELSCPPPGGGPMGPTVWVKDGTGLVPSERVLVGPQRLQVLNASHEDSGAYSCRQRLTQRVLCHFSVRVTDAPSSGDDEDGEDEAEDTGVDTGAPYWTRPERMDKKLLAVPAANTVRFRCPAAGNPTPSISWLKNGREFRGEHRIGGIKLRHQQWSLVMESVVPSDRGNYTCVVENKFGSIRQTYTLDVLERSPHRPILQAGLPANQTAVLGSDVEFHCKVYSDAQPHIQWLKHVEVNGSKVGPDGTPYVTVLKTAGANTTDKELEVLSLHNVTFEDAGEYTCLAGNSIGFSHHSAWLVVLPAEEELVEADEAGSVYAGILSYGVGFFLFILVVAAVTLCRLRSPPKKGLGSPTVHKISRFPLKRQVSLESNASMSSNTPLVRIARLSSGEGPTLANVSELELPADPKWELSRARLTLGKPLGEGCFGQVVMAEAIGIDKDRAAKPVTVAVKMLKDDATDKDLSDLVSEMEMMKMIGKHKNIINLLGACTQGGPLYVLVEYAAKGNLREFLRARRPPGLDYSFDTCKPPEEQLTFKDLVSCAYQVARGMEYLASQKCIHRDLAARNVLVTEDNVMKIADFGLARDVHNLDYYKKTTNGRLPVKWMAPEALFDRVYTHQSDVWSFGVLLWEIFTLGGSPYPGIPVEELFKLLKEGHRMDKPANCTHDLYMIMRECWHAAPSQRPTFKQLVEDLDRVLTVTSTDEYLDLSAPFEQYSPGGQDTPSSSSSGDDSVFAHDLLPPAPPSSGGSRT

The pIC50 is −log10 of the IC50, conventionally taken in molar units. The melting point is the temperature of the solid-liquid transition. Turning to `COc1cc(F)cc(-c2ccc3c(NC(=O)c4ccc(N5CCC(N(C)C)CC5)cc4)n[nH]c3c2)c1` [9u, 4–(4-(dimethylamino)piperidin-1-yl)-N-(6–(3-fluoro-5-methoxyphenyl)-1H-indazol-3-yl)benzamide], the melting point fell in the range of 223.8 to 227.4 °C. This compound also showed a negative logarithm of the IC50 (pIC50) at FGFR1 (ELISA, average values from two separate experiments) of 8.48. In addition, the “enhancement of FGFR1 inhibitory activity” value on FGFR1 (compared with 9o) came to 1.5 fold. In the data set with SNU-16 cell, this compound gave a pIC50 of 6.33. The compound also had a pIC50 against FGFR2 of 8.28. For the same compound, the pIC50 against FGFR3 is 7.91. For the same compound, the pIC50 at FGFR4 is less than 6.00. This compound also had a pIC50 against ALK of less than 6.00. The pIC50 against Bcr-Abl was less than 6.00. In addition, the pIC50 at EPH-A2 is less than 6.00. The pIC50 at Flt-1 was less than 7.00. This compound had a pIC50 against RET of less than 7.00. The pIC50 against c-Src was less than 7.00. For the same compound, the pIC50 on IGF1R was less than 6.00. Moreover, the pIC50 against c-Met is less than 6.00. At EGFR, this compound showed a pIC50 of less than 6.00. On ErbB2, this compound showed a pIC50 of less than 6.00.
